Results reported in US12240844B2 (Voronoi, Inc., priority 2019, dated 2025).

Key:
Assay type in all cases: biochemical
[1] = target: T1, human GST-DYRK1A (full length) (Homo sapiens, UniProt Q13627); experiment: GST-DYRK1A enzyme inhibition, ADP-Glo kinase assay; settings: read-out: DYRK1 IC50
T1 construct: purified human GST-DYRK1A (full length, Thermo scientifics) enzyme; GST; purchased Thermo scientifics
Summary of the method: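 Full-length human GST-DYRK1A (10 ng) incubated with 10 uM ATP and specific substrate for 1 h at 25° C in 40 mM Tris-HCl pH 7.4, 20 mM MgCl2, 0.5 mg/mL BSA, 50 uM DTT. ADP formation read by ADP-Glo luminescence; IC50 (nM) versus solvent control, triplicate.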

LRRK2 = LRRK2 (Homo sapiens, UniProt Q5S007); experiment: LRRK2 enzyme inhibition, ADP-Glo kinase assay; parameters: purchased Invitrogen PR8604B
Sequence of LRRK2 (Q5S007 970-2527 limits assumed): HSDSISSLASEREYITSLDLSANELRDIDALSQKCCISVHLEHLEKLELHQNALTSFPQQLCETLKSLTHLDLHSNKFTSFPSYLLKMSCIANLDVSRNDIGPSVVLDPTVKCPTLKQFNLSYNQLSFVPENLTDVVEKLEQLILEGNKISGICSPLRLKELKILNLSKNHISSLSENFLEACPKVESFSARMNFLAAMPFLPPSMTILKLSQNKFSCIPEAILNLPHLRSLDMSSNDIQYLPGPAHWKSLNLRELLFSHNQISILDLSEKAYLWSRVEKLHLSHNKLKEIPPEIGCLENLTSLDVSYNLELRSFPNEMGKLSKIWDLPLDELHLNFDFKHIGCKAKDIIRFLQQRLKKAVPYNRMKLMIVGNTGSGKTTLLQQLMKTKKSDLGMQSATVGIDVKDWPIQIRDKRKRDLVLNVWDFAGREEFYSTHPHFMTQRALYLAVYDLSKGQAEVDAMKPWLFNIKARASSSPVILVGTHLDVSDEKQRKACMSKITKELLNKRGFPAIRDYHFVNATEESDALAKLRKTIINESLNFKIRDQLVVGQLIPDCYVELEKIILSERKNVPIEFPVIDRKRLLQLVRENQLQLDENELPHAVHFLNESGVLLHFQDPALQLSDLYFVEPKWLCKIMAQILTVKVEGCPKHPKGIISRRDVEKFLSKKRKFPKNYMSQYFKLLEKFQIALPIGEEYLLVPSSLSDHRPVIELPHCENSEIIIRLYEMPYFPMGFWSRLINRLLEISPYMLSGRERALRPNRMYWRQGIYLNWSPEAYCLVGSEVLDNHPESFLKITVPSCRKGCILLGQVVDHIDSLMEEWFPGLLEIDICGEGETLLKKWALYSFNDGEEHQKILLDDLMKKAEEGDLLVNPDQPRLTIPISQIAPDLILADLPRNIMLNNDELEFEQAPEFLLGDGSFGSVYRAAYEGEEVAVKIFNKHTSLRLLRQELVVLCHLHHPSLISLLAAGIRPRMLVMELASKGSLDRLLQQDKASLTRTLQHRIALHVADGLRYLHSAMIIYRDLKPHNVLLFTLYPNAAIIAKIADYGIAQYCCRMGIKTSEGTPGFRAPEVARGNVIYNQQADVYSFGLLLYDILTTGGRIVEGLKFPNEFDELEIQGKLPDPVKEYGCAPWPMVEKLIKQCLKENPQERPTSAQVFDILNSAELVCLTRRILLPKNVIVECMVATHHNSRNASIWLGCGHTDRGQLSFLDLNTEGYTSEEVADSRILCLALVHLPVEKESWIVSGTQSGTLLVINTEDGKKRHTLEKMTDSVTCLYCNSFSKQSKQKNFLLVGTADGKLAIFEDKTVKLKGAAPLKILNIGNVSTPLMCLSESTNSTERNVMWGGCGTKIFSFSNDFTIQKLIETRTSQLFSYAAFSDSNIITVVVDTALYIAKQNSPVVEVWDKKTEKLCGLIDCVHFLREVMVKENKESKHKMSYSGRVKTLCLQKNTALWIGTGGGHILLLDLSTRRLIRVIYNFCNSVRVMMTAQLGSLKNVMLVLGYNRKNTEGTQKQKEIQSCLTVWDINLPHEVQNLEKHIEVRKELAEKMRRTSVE
Summary of the method: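 Purified human LRRK2 (25 ng) in 40 mM Tris-HCl pH7.4, 20 mM MgCl2, 0.5 mg/ml BSA, 50 μM DTT with 10 μM ATP and substrate ([…]), 2 h at 25° C. Final compound 50 to 0.000001024 μM, 12-point dilution. ADP-Glo luminescence vs solvent control; IC50 (nM).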

human GST-CLK1 (129-end) = target: T2, human GST-CLK1 (129-end) (Homo sapiens, UniProt P49759); experiment: GST-CLK1 enzyme inhibition, ADP-Glo kinase assay; settings: ATP 10 uM
T2 construct: purified human GST-CLK1 (129-end, Signalchem) enzyme; GST; purchased Signalchem
T2 sequence (P49759 129-484 limits assumed): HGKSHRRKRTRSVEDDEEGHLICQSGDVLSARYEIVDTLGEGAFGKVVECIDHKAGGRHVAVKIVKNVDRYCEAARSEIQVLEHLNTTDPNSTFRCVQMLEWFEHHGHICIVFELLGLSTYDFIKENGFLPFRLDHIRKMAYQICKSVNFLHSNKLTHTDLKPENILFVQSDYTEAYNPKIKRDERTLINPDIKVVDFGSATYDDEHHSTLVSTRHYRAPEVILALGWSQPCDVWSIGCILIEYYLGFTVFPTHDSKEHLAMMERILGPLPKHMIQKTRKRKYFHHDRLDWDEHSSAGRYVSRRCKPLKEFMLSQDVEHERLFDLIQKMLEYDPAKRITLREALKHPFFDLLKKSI
Summary of the method: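 GST-CLK1 (129-end, 3 ng) reacted with 10 uM ATP and substrate in 40 mM Tris-HCl pH 7.4, 20 mM MgCl2, 0.5 mg/mL BSA, 50 uM DTT, 1 h at 25° C. ADP-Glo luminescence normalised to solvent control; IC50 from triplicate data.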

LRRK2 (G2019S) = LRRK2 (G2019S) (Homo sapiens, UniProt Q5S007, G2019S); experiment: LRRK2 G2019S enzyme inhibition, ADP-Glo kinase assay; parameters: purchased SignalChem L10-12GG
Sequence of LRRK2 (G2019S) (Q5S007 970-2527 G2019S limits assumed): as the sequence (Q5S007 970-2527 limits assumed) above, with G1050S counted along it
Summary of the method: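 Purified human LRRK2 G2019S (16 ng) with 25 μM ATP and 0.2 μg substrate, 2 h at 25° C in 40 mM Tris-HCl pH 7.4, 20 mM MgCl2, 0.5 mg/ml BSA, 50 μM DTT; compound at 12 final concentrations from 50 μM downward. ADP-Glo luminescence versus solvent control gave IC50 (nM).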

| Structure (SMILES) | IC50 [1] | IC50 (LRRK2) | IC50 (human GST-CLK1 (129-end)) | IC50 (LRRK2 (G2019S)) |
| --- | --- | --- | --- | --- |
| COCCNc1cc(Nc2ccc(C(=O)N3CCC(N4CCOCC4)CC3)c3c2OCCO3)nc2[nH]cc(C#N)c12 [Example 118, 4-((2-methoxyethyl)amino)-6-((8-(4-morpholinopiperidine-1-carbonyl)-2,3-dihydrobenzo [b] [1,4]dioxin-5-yl)amino)-1H-pyrrolo[2,3-b]pyridine-3-carbonitrile] | 301 to 1000 nM | < 100 nM | < 100 nM | < 100 nM |
| COc1cc(S(C)(=O)=O)ccc1Nc1cc(NCCS(C)(=O)=O)c2c(C#N)c[nH]c2n1 [Example 119, 6-((2-methoxy-4-(methylsulfonyl)phenyl)amino)-4-((2-(methylsulfonyl)ethyl)amino)-1H-pyrrolo[2,3-b]pyridine-3-carbonitrile] | 301 to 1000 nM | < 100 nM | 301 to 1000 nM | < 100 nM |
| COc1cc(S(C)(=O)=O)ccc1Nc1cc(NC2CCC2)c2c(C#N)c[nH]c2n1 [Example 120, 4-(cyclobutylamino)-6-((2-methoxy-4-(methylsulfonyl)phenyl)amino)-1H-pyrrolo[2,3-b]pyridine-3-carbonitrile] | 301 to 1000 nM | < 100 nM | 301 to 1000 nM | 101 to 300 nM |
| COc1cc(S(C)(=O)=O)ccc1Nc1cc(NC2CCCC2)c2c(C#N)c[nH]c2n1 [Example 121, 4-(cyclopentylamino)-6-((2-methoxy-4-(methylsulfonyl)phenyl)amino)-1H-pyrrolo[2,3-b]pyridine-3-carbonitrile] | 301 to 1000 nM | < 100 nM | 301 to 1000 nM | 301 to 1000 nM |
| COc1cc(S(C)(=O)=O)ccc1Nc1cc(NC2CC2)c2c(C#N)c[nH]c2n1 [Example 122, 4-(cyclopropylamino)-6-((2-methoxy-4-(methylsulfonyl)phenyl)amino)-1H-pyrrolo[2,3-b]pyridine-3-carbonitrile] | 301 to 1000 nM | < 100 nM | 301 to 1000 nM | 101 to 300 nM |
| CNc1cc(Nc2ccc(S(C)(=O)=O)cc2OC)nc2[nH]cc(C#N)c12 [Example 123] | 301 to 1000 nM | < 100 nM | 301 to 1000 nM | < 100 nM |
| CCNc1cc(Nc2ccc(S(C)(=O)=O)cc2OC)nc2[nH]cc(C#N)c12 [Example 124, 4-(ethylamino)-6-((2-methoxy-4-(methylsulfonyl)phenyl)amino)-1H-pyrrolo[2,3-b]pyridine-3-carbonitrile] | 301 to 1000 nM | < 100 nM | 301 to 1000 nM | 101 to 300 nM |
| CCCNc1cc(Nc2ccc(S(C)(=O)=O)cc2OC)nc2[nH]cc(C#N)c12 [Example 125, 6-((2-methoxy-4-(methylsulfonyl)phenyl)amino)-4-(propylamino)-1H-pyrrolo[2,3-b]pyridine-3-carbonitrile] | 301 to 1000 nM | < 100 nM | 301 to 1000 nM | 101 to 300 nM |
| COCCNc1cc(Nc2ccc(S(C)(=O)=O)cc2OC)nc2[nH]cc(C#N)c12 [Example 126, 6-((2-methoxy-4-(methylsulfonyl)phenyl)amino)-4-((2-methoxyethyl)amino)-1H-pyrrolo[2,3-b]pyridine-3-carbonitrile] | 301 to 1000 nM | < 100 nM | 301 to 1000 nM | < 100 nM |
| O=C(c1ccc(Nc2cc(NC3CCCCC3)c3c(C(F)(F)F)c[nH]c3n2)c2c1OCCO2)N1CCOCC1 [Example 154, (8-((4-(cyclohexylamino)-3-(trifluoromethyl)-1H-pyrrolo[2,3-b]pyridin-6-yl)amino)-2,3-dihydrobenzo[b] [1,4]dioxin-5-yl)(morpholino) methanone] | 301 to 1000 nM | 301 to 1000 nM | 301 to 1000 nM | 301 to 1000 nM |
| O=C(c1ccc(Nc2cc(NC3CC3)c3c(C(F)(F)F)c[nH]c3n2)c2c1OCCO2)N1CCOCC1 [Example 155, (8-((4-(cyclopropylamino)-3-(trifluoromethyl)-1H-pyrrolo[2,3-b]pyridin-6-yl)amino)-2,3-dihydrobenzo[b] [1,4]dioxin-5-yl)(morpholino) methanone 2,2,2-trifluoroacetate] | 301 to 1000 nM | < 100 nM | < 100 nM | 101 to 300 nM |
| CC(C)CNc1cc(Nc2ccc(C(=O)N3CCOCC3)c3c2OCCO3)nc2[nH]cc(C(F)(F)F)c12 [Example 156, (8-((4-(isobutylamino)-3-(trifluoromethyl)-1H-pyrrolo[2,3-b]pyridin-6-yl)amino)-2,3-dihydrobenzo[b] [1,4]dioxin-5-yl)(morpholino) methanone] | 301 to 1000 nM | < 100 nM | 301 to 1000 nM | 301 to 1000 nM |
| COCCNc1cc(Nc2ccc(C(=O)N3CCOCC3)c3c2OCCO3)nc2[nH]cc(C(F)(F)F)c12 [Example 158, (8-((4-((2-methoxyethyl)amino)-3-(trifluoromethyl)-1H-pyrrolo[2,3-b]pyridin-6-yl)amino)-2,3-dihydrobenzo[b] [1,4]dioxin-5-yl)(morpholino) methanone] | < 100 nM | < 100 nM | < 100 nM | < 100 nM |
| CCNc1cc(Nc2ccc(C(=O)N3CCC(N4CCOCC4)CC3)c3c2OCCO3)nc2[nH]cc(C(F)(F)F)c12 [Example 161, (8-((4-(ethylamino)-3-(trifluoromethyl)-1H-pyrrolo[2,3-b]pyridin-6-yl)amino)-2,3-dihydrobenzo[b] [1,4]dioxin-5-yl)(4-morpholinopiperidin-1-yl)methanone] | 101 to 300 nM | < 100 nM | < 100 nM | < 100 nM |
| COCCNc1cc(Nc2ccc(C(=O)N3CCC(N4CCOCC4)CC3)c3c2OCCO3)nc2[nH]cc(C(F)(F)F)c12 [Example 164, (8-((4-((2-methoxyethyl)amino)-3-(trifluoromethyl)-1H-pyrrolo[2,3-b]pyridin-6-yl)amino)-2,3-dihydrobenzo[b] [1,4]dioxin-5-yl)(4-morpholinopiperidin-1-yl)methanone] | < 100 nM | < 100 nM | < 100 nM | < 100 nM |
| CS(=O)(=O)CCNc1cc(Nc2ccc(C(=O)N3CCC(N4CCOCC4)CC3)c3c2OCCO3)nc2[nH]cc(C(F)(F)F)c12 [Example 165, (8-((4-((2-(methylsulfonyl)ethyl)amino)-3-(trifluoromethyl)-1H-pyrrolo[2,3-b]pyridin-6-yl)amino)-2,3-dihydrobenzo[b] [1,4]dioxin-5-yl)(4-morpholinopiperidin-1-yl)methanone] | < 100 nM | < 100 nM | < 100 nM | < 100 nM |
| CNc1cc(Nc2ccc(S(=O)(=O)N3CCOCC3)cc2OC)nc2[nH]cc(C(F)(F)F)c12 [Example 177, N^6-(2-methoxy-4-(morpholinosulfonyl)phenyl)-N^4-methyl-3-(trifluoromethyl)-1H-pyrrolo[2,3-b]pyridine-4,6-diamine] | 301 to 1000 nM | 301 to 1000 nM | 301 to 1000 nM | 301 to 1000 nM |
| CNc1cc(Nc2ccc(S(C)(=O)=O)cc2OC)nc2[nH]cc(C(F)(F)F)c12 [Example 178, N^6-(2-methoxy-4-(methylsulfonyl)phenyl)-N^4-methyl-3-(trifluoromethyl)-1H-pyrrolo[2,3-b]pyridine-4,6-diamine] | < 100 nM | 301 to 1000 nM | 301 to 1000 nM | 301 to 1000 nM |
| CCNc1cc(Nc2ccc(S(C)(=O)=O)cc2OC)nc2[nH]cc(C(F)(F)F)c12 [Example 180, N^4-ethyl-N^6-(2-methoxy-4-(methylsulfonyl)phenyl)-3-(trifluoromethyl)-1H-pyrrolo[2,3-b]pyridine-4,6-diamine] | 301 to 1000 nM | 301 to 1000 nM | 301 to 1000 nM | 301 to 1000 nM |
| COc1cc(S(C)(=O)=O)ccc1Nc1cc(NC2CCCCC2)c2c(C(F)(F)F)c[nH]c2n1 [Example 182, N^4-cyclohexyl-N^6-(2-methoxy-4-(methylsulfonyl)phenyl)-3-(trifluoromethyl)-1H-pyrrolo[2,3-b]pyridine-4,6-diamine] | 301 to 1000 nM | 301 to 1000 nM | 301 to 1000 nM | 301 to 1000 nM |
| COc1cc(S(=O)(=O)N2CCC(N3CCOCC3)CC2)ccc1Nc1cc(NC2CCCCC2)c2c(C(F)(F)F)c[nH]c2n1 [Example 183, N^4-cyclohexyl-N^6-(2-methoxy-4-((4-morpholinopiperidin-1-yl)sulfonyl)phenyl)-3-(trifluoromethyl)-1H-pyrrolo[2,3-b]pyridine-4,6-diamine] | 301 to 1000 nM | 301 to 1000 nM | 301 to 1000 nM | 301 to 1000 nM |
| COc1cc(S(C)(=O)=O)ccc1Nc1cc(NC2CC2)c2c(C(F)(F)F)c[nH]c2n1 [Example 187, N^4-cyclopropyl-N^6-(2-methoxy-4-(methylsulfonyl)phenyl)-3-(trifluoromethyl)-1H-pyrrolo[2,3-b]pyridine-4,6-diamine] | 301 to 1000 nM | 301 to 1000 nM | 301 to 1000 nM | 301 to 1000 nM |
